According to patent EP3625243B1, “TAILORED CYCLODEPSIPEPTIDES AS POTENT NON-COVALENT SERINE PROTEASE INHIBITORS” (Universität Duisburg-Essen, priority 2017, dated 2018):
Where two headings read alike, the source gives them in different places.

Key:
HTRA2 = molecular target: T1, HTRA2 (Homo sapiens, UniProt O43464); experiment: Chromogenic enzyme activity assay, HTRA2
T1 sequence (O43464 134-458): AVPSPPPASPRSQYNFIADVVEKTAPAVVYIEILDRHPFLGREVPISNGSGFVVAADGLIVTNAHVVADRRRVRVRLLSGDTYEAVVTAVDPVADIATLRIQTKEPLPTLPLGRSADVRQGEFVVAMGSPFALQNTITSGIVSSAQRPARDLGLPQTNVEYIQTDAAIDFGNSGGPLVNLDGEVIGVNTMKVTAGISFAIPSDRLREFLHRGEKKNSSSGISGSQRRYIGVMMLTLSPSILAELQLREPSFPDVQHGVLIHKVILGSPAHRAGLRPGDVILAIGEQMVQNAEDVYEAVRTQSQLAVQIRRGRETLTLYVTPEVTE

HTRA1 = HTRA1 (Homo sapiens, UniProt Q92743); experiment: Chromogenic enzyme activity assay, HTRA1
Sequence of HTRA1 (Q92743 158-480): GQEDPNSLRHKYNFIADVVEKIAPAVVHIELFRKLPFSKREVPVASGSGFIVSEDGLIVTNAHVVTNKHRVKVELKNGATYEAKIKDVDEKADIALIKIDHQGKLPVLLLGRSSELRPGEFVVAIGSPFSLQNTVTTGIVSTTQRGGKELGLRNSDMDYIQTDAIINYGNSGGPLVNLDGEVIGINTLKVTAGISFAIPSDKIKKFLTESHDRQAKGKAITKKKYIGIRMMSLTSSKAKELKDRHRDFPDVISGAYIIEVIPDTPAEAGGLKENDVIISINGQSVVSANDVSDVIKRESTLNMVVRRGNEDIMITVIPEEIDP

[1] = molecular target: T2, human pancreas chymotrypsin (Homo sapiens, UniProt P17538); experiment: Chromogenic enzyme activity assay, chymotrypsin; assay type: biochemical; details: Table 2, substrate AAF-pNA, read-out: Ki Chymo- trypsin [a]
T2 construct: purchased Sigma-Aldrich SRP6509-100
T2 sequence (P17538 19-263): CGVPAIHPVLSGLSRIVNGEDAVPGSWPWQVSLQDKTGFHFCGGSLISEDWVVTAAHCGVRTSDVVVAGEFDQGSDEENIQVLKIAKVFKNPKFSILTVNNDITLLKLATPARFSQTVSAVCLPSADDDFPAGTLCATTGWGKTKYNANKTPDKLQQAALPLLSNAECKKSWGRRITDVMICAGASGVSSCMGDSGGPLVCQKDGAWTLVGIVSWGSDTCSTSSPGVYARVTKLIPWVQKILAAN

HTRA3 = HTRA3 (Homo sapiens, UniProt P83110); experiment: Chromogenic enzyme activity assay, HTRA3
Sequence of HTRA3 (P83110 111-436): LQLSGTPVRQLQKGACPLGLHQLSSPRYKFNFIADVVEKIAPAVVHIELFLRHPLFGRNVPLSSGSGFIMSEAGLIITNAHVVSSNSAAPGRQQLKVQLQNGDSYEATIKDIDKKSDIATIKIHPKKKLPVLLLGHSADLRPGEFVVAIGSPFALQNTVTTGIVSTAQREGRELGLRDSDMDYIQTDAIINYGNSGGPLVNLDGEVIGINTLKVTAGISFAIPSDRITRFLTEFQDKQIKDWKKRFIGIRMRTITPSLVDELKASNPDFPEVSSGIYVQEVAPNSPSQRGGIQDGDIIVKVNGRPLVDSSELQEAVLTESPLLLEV

[2] = molecular target: T3, human neutrophil elastase (Homo sapiens, UniProt P08246); experiment: Chromogenic enzyme activity assay, elastase; assay type: biochemical
T3 construct: purchased Enzo Life Sciences BML-SE284
T3 sequence (P08246 30-267): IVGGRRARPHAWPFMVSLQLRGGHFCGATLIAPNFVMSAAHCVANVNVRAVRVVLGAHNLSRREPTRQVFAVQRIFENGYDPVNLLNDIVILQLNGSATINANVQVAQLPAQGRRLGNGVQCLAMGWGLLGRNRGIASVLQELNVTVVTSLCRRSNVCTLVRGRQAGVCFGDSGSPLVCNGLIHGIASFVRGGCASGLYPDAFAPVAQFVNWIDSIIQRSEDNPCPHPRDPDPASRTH

bovine pancreas trypsin = molecular target: T4, bovine pancreas trypsin (Bos taurus, UniProt P00760); experiment: Chromogenic enzyme activity assay, trypsin; assay type: biochemical; details: Table 2, read-out: Ki Trypsin [c]
T4 construct: purchased Sigma-Aldrich T1426
T4 sequence (P00760 24-246): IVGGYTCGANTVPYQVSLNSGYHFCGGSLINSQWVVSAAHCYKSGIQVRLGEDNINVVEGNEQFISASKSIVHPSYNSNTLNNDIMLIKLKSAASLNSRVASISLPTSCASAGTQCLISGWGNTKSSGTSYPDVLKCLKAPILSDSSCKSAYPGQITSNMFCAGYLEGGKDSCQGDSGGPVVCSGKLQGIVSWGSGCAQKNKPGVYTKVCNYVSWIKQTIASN

[3] = Table 2, substrate AAPV-pNA, read-out: Ki Elastase [b]
[4] = Table 3, read-out: Ki Elastase [b]

Structure (SMILES)	Ki (HTRA2)	Ki (HTRA1)	Ki [1]	Ki (HTRA3)	Ki [2, 4]	other results
CC(C)C[C@H]1C(=O)N(C)[C@@H](Cc2ccccc2)C(=O)N[C@@H](C(C)C)C(=O)O[C@H](C(C)C)[C@H](NC(=O)[C@H](C)NC(=O)[C@H](C)NC(=O)OCc2ccccc2)C(=O)N[C@@H](C(C)C)C(=O)N[C@H]2CC[C@@H](O)N1C2=O [Ahp10]	0.26 ± 0.03 µM	2.4 ± 0.6 µM	> 50 µM	0.48 ± 0.07 µM	–	Ki (HTRA2) (HTRA2; Table 2): sub-µM; Ki [2, 3]: 0.018 ± 0.004 µM
CC(C)[C@@H]1NC(=O)[C@@H](NC(=O)[C@H](C)NC(=O)[C@H](C)NC(=O)OCc2ccccc2)[C@@H](C)OC(=O)[C@H](C(C)C)NC(=O)[C@H](Cc2ccccc2)N(C)C(=O)[C@H](Cc2ccccc2)N2C(=O)[C@H](CC[C@H]2O)NC1=O [Ahp6]	–	–	> 50 µM	–	–	–
CC(C)C[C@H]1C(=O)N(C)[C@@H](Cc2ccccc2)C(=O)N[C@@H](C(C)C)C(=O)O[C@H](c2ccccc2)[C@H](NC(=O)[C@H](C)NC(=O)[C@H](C)NC(=O)OCc2ccccc2)C(=O)N[C@@H](C(C)C)C(=O)N[C@H]2CC[C@@H](O)N1C2=O [Ahp3]	–	–	> 50 µM	–	–	–
CC(C)C[C@H]1C(=O)N(C)[C@@H](Cc2ccccc2)C(=O)N[C@@H](C(C)C)C(=O)O[C@H](C)[C@H](NC(=O)[C@H](C)NC(=O)[C@H](C)NC(=O)OCc2ccccc2)C(=O)N[C@@H](Cc2ccccc2)C(=O)N[C@H]2CC[C@@H](O)N1C2=O [Ahp2]	> 50 µM	> 50 µM	–	> 50 µM	–	Ki (bovine pancreas trypsin): > 50 µM; Ki [2, 3]: > 50 µM
C#CC[C@@H]1NC(=O)[C@@H](NC(=O)[C@H](C)NC(=O)[C@H](C)NC(=O)OCc2ccccc2)[C@@H](C)OC(=O)[C@H](C(C)C)NC(=O)[C@H](Cc2ccccc2)N(C)C(=O)[C@H](CC(C)C)N2C(=O)[C@H](CC[C@H]2O)NC1=O [Ahp18]	–	> 50 µM	–	17.9 µM	0.2 µM	–
CCC[C@@H]1NC(=O)[C@@H](NC(=O)[C@H](C)NC(=O)[C@H](C)NC(=O)OCc2ccccc2)[C@@H](C)OC(=O)[C@H](C(C)C)NC(=O)[C@H](Cc2ccccc2)N(C)C(=O)[C@H](CC(C)C)N2C(=O)[C@H](CC[C@H]2O)NC1=O [Ahp15]	0.69 µM	7 µM	–	> 50 µM	0.13 µM	–
CC[C@@H]1NC(=O)[C@@H](NC(=O)[C@H](C)NC(=O)[C@H](C)NC(=O)OCc2ccccc2)[C@@H](C)OC(=O)[C@H](C(C)C)NC(=O)[C@H](Cc2ccccc2)N(C)C(=O)[C@H](CC(C)C)N2C(=O)[C@H](CC[C@H]2O)NC1=O [Ahp14]	0.7 µM	2.97 µM	–	1.46 µM	0.47 µM	–
CC(C)C[C@H]1C(=O)N(C)[C@@H](Cc2ccccc2)C(=O)N[C@@H](C(C)C)C(=O)O[C@H](C)[C@H](NC(=O)[C@H](Cc2ccccc2)NC(=O)[C@H](C)NC(=O)OCc2ccccc2)C(=O)N[C@@H](C(C)C)C(=O)N[C@H]2CC[C@@H](O)N1C2=O [Ahp4]	–	–	> 50 µM	–	–	HTRA2 inhibition potency relative to Ahp1 (HTRA2; compared with Ahp1): more than ten-fold more potent
CC(C)C[C@H]1C(=O)N(C)[C@@H](Cc2ccccc2)C(=O)N[C@@H](C(C)C)C(=O)O[C@H](C)[C@H](NC(=O)[C@H](C)NC(=O)[C@H](C)NC(=O)OCc2ccccc2)C(=O)N[C@@H](C(C)C)C(=O)N[C@H]2CC[C@@H](O)N1C2=O [Ahp1]	4.1 ± 0.4 µM	8.2 ± 2.7 µM	> 50 µM	3 ± 0.5 µM	–	Ki [2, 3]: 0.019 ± 0.003 µM
C=CC[C@@H]1NC(=O)[C@@H](NC(=O)[C@H](C)NC(=O)[C@H](C)NC(=O)OCc2ccccc2)[C@@H](C)OC(=O)[C@H](C(C)C)NC(=O)[C@H](Cc2ccccc2)N(C)C(=O)[C@H](CC(C)C)N2C(=O)[C@H](CC[C@H]2O)NC1=O [Ahp17]	1.38 µM	> 50 µM	–	0.84 µM	0.16 µM	–
CC(C)C[C@H]1C(=O)N(C)[C@@H](Cc2ccccc2)C(=O)N[C@@H](C(C)C)C(=O)O[C@H](C)[C@H](NC(=O)[C@H](C)NC(=O)[C@H](C)NC(=O)OCc2ccccc2)C(=O)N[C@@H](C)C(=O)N[C@H]2CC[C@@H](O)N1C2=O [Ahp13]	0.26 µM	4.26 µM	–	0.98 µM	0.026 µM	–
CCC(C)[C@@H]1NC(=O)[C@@H](NC(=O)[C@H](C)NC(=O)[C@H](C)NC(=O)OCc2ccccc2)[C@@H](C)OC(=O)[C@H](C(C)C)NC(=O)[C@H](Cc2ccccc2)N(C)C(=O)[C@H](CC(C)C)N2C(=O)[C@H](CC[C@H]2O)NC1=O (some centres unmarked) [Ahp16]	> 50 µM	> 50 µM	–	> 50 µM	0.5 µM	–
CC(C)C[C@H]1C(=O)N(C)[C@@H](Cc2ccccc2)C(=O)N[C@@H](Cc2ccccc2)C(=O)O[C@H](C)[C@H](NC(=O)[C@H](C)NC(=O)[C@H](C)NC(=O)OCc2ccccc2)C(=O)N[C@@H](C(C)C)C(=O)N[C@H]2CC[C@@H](O)N1C2=O [Ahp8]	–	–	> 50 µM	–	–	–
CC(C)C[C@H]1C(=O)N(C)[C@@H](C)C(=O)N[C@@H](C(C)C)C(=O)O[C@H](C)[C@H](NC(=O)[C@H](C)NC(=O)[C@H](C)NC(=O)OCc2ccccc2)C(=O)N[C@@H](C(C)C)C(=O)N[C@H]2CC[C@@H](O)N1C2=O [Ahp7]	6.9 ± 1.5 µM	> 50 µM	> 50 µM	> 50 µM	–	Ki [2, 3]: 0.11 ± 0.02 µM
CC(C)C[C@H]1C(=O)N(C)[C@@H](Cc2ccccc2)C(=O)N[C@@H](C(C)C)C(=O)O[C@H](C)[C@H](NC(=O)[C@H](C)NC(=O)[C@H](C)NC(=O)OCc2ccccc2)C(=O)N[C@@H](C2CCCCC2)C(=O)N[C@H]2CC[C@@H](O)N1C2=O [Ahp21]	–	–	–	–	> 50 µM	Ki (HTRA2; read-out: Ki HTRA2 [a], Table 3, human HTRA proteases): > 50 µM; Ki (HTRA1; read-out: Ki HTRA1 [a], Table 3, human HTRA proteases): > 50 µM; Ki (HTRA3; read-out: Ki HTRA3 [a], Table 3, human HTRA proteases): > 50 µM
